PubChem BioAssay (NCI)
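Abbreviation: GI50, concentration required for 50% inhibition of growth. TGI is the concentration that stops growth completely.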

What was measured:
Assay in all cases: NCI-60 cell line screen, 384-well format
[1] = test system: HCT-116 colon
[2] = test system: KM12 colon
[3] = test system: UACC-257 melanoma
[4] = test system: NCI-H322M lung
[5] = test system: MALME-3M melanoma
[6] = test system: NCI/ADR-RES ovarian
[7] = test system: LOX IMVI melanoma
[8] = test system: SN12C renal
[9] = test system: A549 NSCLC
[10] = test system: SF-539 CNS
[11] = test system: SR leukemia
[12] = test system: TK-10 renal
[13] = test system: SNB-19 CNS

CCc1c(C#N)c(SC(C(N)=O)c2ccccc2)nc(N2CCC(N)CC2)c1C#N (stereo unspecified)
GI50 [1]: 1.84 µM
TGI [1]: 14.5 µM
GI50 [2]: 11.2 µM
TGI [2]: 23.4 µM
GI50 [3]: 2.22 µM
TGI [3]: 5.18 µM
GI50 [4]: 15.9 µM
TGI [4]: 29.4 µM
GI50 [5]: 4.17 µM
TGI [5]: 16.9 µM
GI50 [6]: 66.6 µM
TGI [6]: > 100 µM
GI50 [7]: 11.4 µM
TGI [7]: 23.7 µM
GI50 [8]: 11.5 µM
TGI [8]: 23.7 µM
GI50 [9]: 14.4 µM
TGI [9]: 27.7 µM
GI50 [10]: 6.59 µM
TGI [10]: 19.3 µM
GI50 [11]: 3.45 µM
TGI [11]: 11.8 µM
GI50 [12]: 17.5 µM
TGI [12]: 31.4 µM
GI50 [13]: 13.9 µM
TGI [13]: 27 µM
